# According to patent publication US11896704B2, “Compounds useful for the treatment and/or care of the skin, hair, nails and/or mucous membranes” (LUBRIZOL ADVANCED MATERIALS, INC., priority 2017, dated 2024):
# What was measured:
# Assay type in all cases: cell-based, Human
# Conditions in all cases: 0.5 mg/ml
# [1] = test system: PER3 (period circadian clock 3); assay: Clock gene expression in synchronized HEKa, real time PCR: PER3
# Method: (§1) In Vitro Study of Clock Genes Expression in Synchronized Human Epidermal Keratinocytes from Adult (HEKa) Using Real Time PCR Arrays. HEKa cells (Life Technologies) are seeded at 3.0×10^5 cells/well in 12-well plates and incubated in culture medium, Keratinocyte growth medium supplemented with Mix C39016-CaCl2 solution (Promocell). For synchronization, cells were subjected to two alternative cycles of 12 hours each at 37° C. in 5% CO2 humidified air (day mode) and 33° C. in 5% CO2 humidified air (night mode). 12 hours after starting synchronization, cells are incubated with the synthetic peptide […] (PEP-1, H-[SEQ ID. NO. 2]-NH2) at 0.5 mg/ml in culture medium. Cells treated with medium alone are used as basal condition. At the end of synchronization, cell lysates are collected at two different times: 7:30 hour (early morning point) and 11:30 hour (midday point). […] After RNA elution, quantification and analysis of purity of RNA samples are performed with a nanodrop (Thermo). […] SYBR Green binds to double-stranded DNA molecules and emits fluorescence which is quantified, and the fluorescence intensity is proportional to the amount of the product in the PCR reaction. […] Fold change relative to the expression of the sample genes and reference genes is calculated using normalized expression (ΔΔ(Ct)) method using CFX Manager Software (BioRad).
# [2] = test system: CRY2 (cryptochrome circadian clock 2); assay: Clock gene expression in synchronized HEKa, real time PCR: CRY2
# Method: as §1
# [3] = test system: PER2 (period circadian clock 2); assay: PER genes expression in young and old HEKa, real time PCR: PER2
# Method: In Vitro Study of PER Genes Expression in Young and Old Human Epidermal Keratinocytes (HEKa) Using Real Time PCR Arrays. Human Epidermal Keratinocytes, (HEKa) cells (Life Technologies) from donor one and donor two are seeded at 3.0×10^5 cells/well in 12-well plates and incubated in culture medium, Keratinocyte growth medium supplemented with Mix C39016-CaCl2 solution (Promocell). For synchronization, cells were subjected to two alternative cycles of 12 hours each at 37° C. in 5% CO2 humidified air (day mode) and 33° C. in 5% CO2 humidified air (night mode). 12 hours after starting synchronization, cells are incubated with the synthetic peptide […] (PEP-1, H-[SEQ ID. NO. 2]-NH2) at 0.5 mg/ml in culture medium. Cells treated with medium alone are used as basal condition. At the end of synchronization, cell lysates are collected at 7:30 hour (early morning point). […] After RNA elution, quantification and analysis of purity of RNA samples are performed with a nanodrop (Thermo). […] SYBR Green binds to double-stranded DNA molecules and emits fluorescence which is quantified, and the fluorescence intensity is proportional to the amount of the product in the PCR reaction. […] Fold change relative to the expression of the sample genes and reference genes is calculated using normalized expression (ΔΔ(Ct)) method using CFX Manager SoftwareTM (BioRad).
substance,measurement,setting,value
H-Phe-Trp-Met-Lys-Arg-Lys-Arg-Val-Pro-NH2 (H-FWMKRKRVP-NH2) [PEP-1],Fold induction respect to Basal condition at 7:30 h (%),[1],182.5%
same,Fold induction respect to Basal condition at 7:30 h (%),[2],132.5%
same,Fold induction at 7:30 h respect to Basal condition (%),"[3]; PER2, HEKa from donor one",172.0%
same,Fold induction at 7:30 h respect to Basal condition (%),"[3]; PER2, HEKa from donor two",292.0%
